Data: the supplement of paper PMC10307832

Assays:
Test in all cases: relative viability (nuclei count vs DMSO), 5 days (fraction); higher = more cells survive
[1] = compound: C1CC(C2=C(C1)C3=C(N2)C=CC(=C3)Cl)C(=O)N [Selisistat] + C[C@@H](Oc1cc(-c2cnn(C3CCNCC3)c2)cnc1N)c1c(Cl)ccc(F)c1Cl [Crizotinib] (partner 1 µM)
In short: (§1)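 Lung cancer cell lines in 1536-well plates got either a single drug or a fixed anchor-drug dose together with five library-drug doses (not always all listed) in √10 steps, by pin tool, on the day after seeding. Nuclei were counted after 5 days, and relative viability is the treated-to-vehicle ratio of nuclei counts. Values are medians of duplicate plates.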

[2] = compound: C1CC(C2=C(C1)C3=C(N2)C=CC(=C3)Cl)C(=O)N [Selisistat] + Nc1ncn([C@H]2C[C@H](O)[C@@H](CO)O2)c(=O)n1 [Decitabine] (partner 2 µM)
In short: as §1

[3] = compound: c1ccc2c(CCNc3ccc(Nc4ccncc4)cc3)c[nH]c2c1 [Serdemetan] + Cc1cc(Nc2cc(N3CCN(C)CC3)nc(Sc3ccc(NC(=O)C4CC4)cc3)n2)n[nH]1 [Tozasertib] (partner 0.1 µM)
In short: as §1

[4] = compound: c1ccc2c(CCNc3ccc(Nc4ccncc4)cc3)c[nH]c2c1 [Serdemetan] + O=C(CCCCCCC(=O)Nc1ccccc1)NO [Vorinostat] (partner 1 µM)
In short: as §1

Cell Line | relative viability ([1]; first compound 0.4 µM) | relative viability ([1]; first compound 1.265 µM) | relative viability ([1]; first compound 12.65 µM) | relative viability ([1]; first compound 40 µM) | relative viability ([2]; first compound 0.4 µM) | relative viability ([2]; first compound 1.265 µM) | relative viability ([2]; first compound 4 µM) | relative viability ([2]; first compound 12.65 µM) | relative viability ([2]; first compound 40 µM) | relative viability ([3]; first compound 0.04 µM) | relative viability ([3]; first compound 0.1265 µM) | relative viability ([3]; first compound 0.4 µM) | relative viability ([3]; first compound 1.265 µM) | relative viability ([3]; first compound 4 µM) | relative viability ([4]; first compound 0.04 µM) | relative viability ([4]; first compound 0.1265 µM) | relative viability ([4]; first compound 0.4 µM) | relative viability ([4]; first compound 1.265 µM) | relative viability ([4]; first compound 4 µM) | relative viability ([1]; first compound 4 µM)
NCI-H1355 | 1.01 | 1.08 | 1.08 | 1.21 | 0.336 | 0.383 | 0.345 | 0.338 | 0.388 | 0.489 | 0.508 | 0.443 | 0.381 | 0.385 | 0.654 | 0.688 | 0.632 | 0.617 | 0.541 | 
HCC-78 | 0.341 | 0.304 | 0.307 | 0.345 | 0.768 | 0.794 | 0.6 | 0.66 | 0.646 | 0.414 | 0.354 | 0.363 | 0.329 | 0.303 | 0.464 | 0.432 | 0.483 | 0.388 | 0.339 | 0.3
NCI-H1563 | 0.804 | 0.737 | 0.803 | 0.776 |  |  |  |  |  |  |  |  |  |  |  |  |  |  |  | 0.835
HCC-15 | 0.913 | 0.866 | 0.782 | 0.813 | 0.695 | 0.739 |  | 0.737 | 0.79 | 0.377 | 0.367 | 0.377 | 0.294 | 0.283 | 0.848 | 0.83 | 0.704 | 0.681 | 0.456 | 
EKVX | 0.964 | 0.925 | 0.896 | 0.983 | 0.415 | 0.355 | 0.339 | 0.367 | 0.368 | 0.424 | 0.426 | 0.327 |  | 0.29 | 0.798 | 0.719 |  | 0.462 | 0.546 | 1.01
NCI-H2087 | 0.847 | 0.77 | 0.763 | 0.784 | 0.34 | 0.295 |  | 0.263 | 0.234 | 0.282 | 0.237 | 0.308 | 0.202 | 0.2 | 0.864 | 0.316 | 0.527 | 0.226 | 0.213 | 1.13
LK-2 | 0.234 | 0.255 | 0.231 | 0.24 | 0.397 | 0.307 | 0.198 | 0.34 | 0.294 | 0.171 | 0.176 | 0.194 | 0.207 | 0.168 | 0.394 | 0.371 | 0.372 | 0.221 | 0.461 | 0.245
NCI-H1437 | 0.855 | 0.885 | 0.865 | 0.792 | 0.61 | 0.597 | 0.528 | 0.503 | 0.543 | 0.375 | 0.399 | 0.383 | 0.331 | 0.285 | 0.771 | 0.786 | 0.79 | 0.623 | 0.616 | 0.977
COR-L23 | 0.621 | 0.664 | 0.537 | 0.581 | 0.596 | 0.423 | 0.484 | 0.436 | 0.411 | 0.236 | 0.201 | 0.224 | 0.174 | 0.165 | 0.441 | 0.434 | 0.392 | 0.412 | 0.362 | 0.635
